Assay results from PubChem BioAssay AID1329 (NMMLSC, 2008).
Calls of active or inactive are those of the source. The rule behind the calls is not given here.

biological target: Induced myeloid leukemia cell differentiation protein Mcl-1 (Homo sapiens) (UniProt Q07820); assay: modulators of Bim peptide binding to Mcl-1, dose response, biochemical, bead-based flow cytometry, multiplexed, human (AID 1329); conditions: Bim peptide-Mcl-1 binding, MCF
Sequence (Q07820 whole entry, looked up): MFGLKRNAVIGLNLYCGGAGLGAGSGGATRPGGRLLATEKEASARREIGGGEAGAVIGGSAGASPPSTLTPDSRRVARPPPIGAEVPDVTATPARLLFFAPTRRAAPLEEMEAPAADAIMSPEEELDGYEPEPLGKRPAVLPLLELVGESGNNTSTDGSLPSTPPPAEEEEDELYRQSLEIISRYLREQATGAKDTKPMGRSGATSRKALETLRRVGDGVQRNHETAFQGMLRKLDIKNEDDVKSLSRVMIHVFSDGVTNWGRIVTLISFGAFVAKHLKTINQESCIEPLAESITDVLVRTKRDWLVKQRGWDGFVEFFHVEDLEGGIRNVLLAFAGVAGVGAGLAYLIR

SMILES | percent span
COC(=O)Cc1ccc(NC(=S)N2CCN(c3cccc(O)c3)CC2)cc1 | inactive
CCOc1c(Cl)cc(CNc2ccc(N3CCCC3)cc2)cc1OC | inactive
CCNC(=O)N1c2ccc(OCC)cc2C(C)=CC1(C)C | inactive
O=C(CSc1nnc(-c2cccs2)n1Cc1ccco1)c1ccc2c(c1)OCO2 | inactive
COc1cc(OC)c([N+](=O)[O-])cc1/C=N/NC(=O)c1ccncc1 | inactive
Cc1cc(-c2csc(N)n2)c(C)n1C | inactive
CCCc1nnc2n1N=C(c1ccc(-c3cc(Cl)ccc3Cl)o1)CS2 | inactive
Cc1ccc(/C=C2\CCCC3=C2NC(=S)NC3c2ccc(C)cc2)cc1 (configuration not stated) | inactive
COC(=O)c1c(C(=O)OC)c2cccc3cc(-c4ccccc4)c4ccc1c4n32 | inactive
CCOc1ccc(C(=O)Nc2nnn(CC)n2)cc1 | inactive
Oc1ccc(C=NCC2COc3ccccc3O2)cc1 (configuration not stated) | inactive
CCOc1cccc(CNc2ccc(O)cc2)c1OCc1ccccc1Cl | inactive
Cc1cc[n+]2cc(-c3cccc([N+](=O)[O-])c3)c(-c3cccc([N+](=O)[O-])c3)cc2c1 | inactive
NCC(c1ccccc1)c1c[nH]c2ccccc12 (configuration not stated) | inactive
CCOc1ncccc1C(=O)OC(C)C(=O)Nc1ccc(CC)cc1 (configuration not stated) | inactive
Cc1ccc(C(=O)CCC(=O)Nc2ccc(Cl)c(S(=O)(=O)Nc3cccc(Cl)c3)c2)cc1 | inactive
O=C(Cn1cncc1-c1ccc([N+](=O)[O-])cc1)Nc1ccccc1F | inactive
COc1ccc(Cc2c(O)nc(SC)n(C(C)=O)c2=O)cc1 | inactive
C=CCn1c(C)c(C(C)=O)c(N2CCOCC2)nc1=S | inactive
COc1cc(/C=C2/NC(=O)N(Cc3ccccc3F)C2=O)cc(OC)c1O | inactive
O=[N+]([O-])c1c(NCCCO)cc(Sc2nc3ccccc3s2)c2nonc12 | inactive
N/C(Cc1ccc(Cl)c(Cl)c1)=N\OC(=O)c1cccs1 | inactive
COc1cc2c(cc1OC)C(c1ccccc1F)OC(=O)C2 (configuration not stated) | inactive
Cc1ccc(-c2cc(-c3ccc4c(c3)OCO4)c(C#N)c(N)n2)o1 | inactive
Cc1cc(Cl)c(S(=O)(=O)NCC2CCCO2)cc1OCC(N)=O (configuration not stated) | inactive
CC1Nc2ccccc2C(=O)N1NS(C)(=O)=O (configuration not stated) | inactive

SMILES | percent span
COc1ccc2c3c(cccc13)N(C)N=C2C | inactive
CCC(CC)C(=O)Nc1cccc(SC)c1 | inactive
COc1ccccc1-n1c(SCC(=O)N2CCc3ccccc32)nc2c(c1=O)SCC2 | inactive
O=c1[nH]c(SCc2nc3ccccc3c(=O)n2-c2ccccc2C(F)(F)F)nc2ccccc12 | inactive
CCOc1ccc(NCc2ccccc2OCc2cccc(F)c2)cc1 | inactive
CCOC(=O)C1=C(Cc2ccc(C)cc2)C(=O)c2ccccc2C1=O | inactive
CC1(C)CC(NC(=O)COc2ccc([N+](=O)[O-])cc2)CC(C)(C)N1 | inactive
COc1cc(N=c2ssnc2Cl)cc(OC)c1 | inactive
CC(C(=O)Nc1cc([N+](=O)[O-])ccc1Cl)N1CCN(c2ccc(O)cc2)CC1 (configuration not stated) | inactive
CCNC(=S)Nc1cc(OCC)c(NC(=O)c2cccs2)cc1OCC | inactive
Cc1ccc(NC(=O)CC2S/C(=N/N=C/c3c[nH]c4ccccc34)NC2=O)cc1 (configuration not stated) | inactive
CNc1ccc(Br)cc(C(=O)/C=C/c2ccc(OC)cc2)c1=O | inactive
Cc1ccc(C2=N/C(=C/c3cccs3)C(=O)N2Nc2ccccc2)cc1 | inactive
COc1ccc(/C=C(/C(=O)c2cccs2)N2C=CC=CC2=C(C#N)C#N)cc1 | inactive
CNC(=O)/C(C#N)=C/c1c(N(Cc2ccccc2)Cc2ccccc2)nc2c(C)cccn2c1=O | inactive
COc1ccc(NC(=O)c2c(F)cccc2F)cc1S(=O)(=O)Nc1ccc(Br)cc1 | inactive
CCOc1cc(/C=N/NC(N)=O)ccc1OCC(=O)Nc1ccc(C)c(C)c1 | inactive
O=C1CCc2cc(S(=O)(=O)NCCCC(=O)N3CCN(Cc4ccc5c(c4)OCO5)CC3)ccc2N1 | inactive
CCN1CCN(c2cc(C)c3cc(NC(=S)N4CCCCC4)ccc3n2)CC1 | inactive
CC(C)(C)c1nc(NCCN2CCOCC2)c2nnn(Cc3ccccc3Cl)c2n1 | inactive
CCN(CC)c1nc(N)nc(N(c2ccccc2)c2ccccc2)n1 | inactive
CC(C(=O)Nc1ccc([N+](=O)[O-])cc1)N1CCN(C/C=C/c2ccccc2)CC1 (configuration not stated) | inactive
CC1Cc2ccccc2N1C(=O)c1ccc(N2CCCC2)c([N+](=O)[O-])c1 (configuration not stated) | inactive
Cc1ccc(-c2cc(-c3ccc(F)cc3)nc(N)c2C#N)o1 | inactive
CC(/C=C/C(=O)c1ccc(C)cc1)=C\c1ccccc1 | inactive
O=C1NC(=O)C(=Cc2ccc(-c3cc(Cl)ccc3[N+](=O)[O-])o2)C(=O)N1 | inactive

SMILES | percent span
COc1ccccc1Cn1nnc2c(=O)[nH]c(C3CCN(C(=O)c4ccc(C)cc4)CC3)nc21 | inactive
CCN1CCN(c2ccc(NC(=O)c3ccc4c(c3)[nH]c(=O)n4Cc3ccc(OC)cc3)cc2)CC1 | inactive
Cc1ccc(Nc2nc(CSc3nnc(-c4cccnc4)n3-c3ccccc3C)cs2)cc1 | inactive
COc1ccc(N2CC(C(=O)Nc3nnc(SCC(=O)c4ccccc4)s3)CC2=O)cc1 (configuration not stated) | inactive
COc1ccc(NS(=O)(=O)c2cc(NC(=O)c3ccc(C)o3)ccc2N2CCCCC2)cc1 | inactive
CCOc1cc(/C=C2/N=C(C)C(C(=O)OC)=C2O)ccc1O | inactive
Cc1c(NC2=C(Cl)C(=O)N(c3ccccc3Cl)C2=O)c(=O)n(-c2ccccc2)n1C | inactive
O=C(Nc1cccc(Cl)c1)Nc1ccnc(-c2cccnc2)n1 | inactive
CC(=O)c1ccc(NC(=O)c2ccc3nc(-c4ccco4)c(-c4ccco4)nc3c2)cc1 | inactive
Cc1cc(-c2nn(-c3ccccc3)cc2/C=C2\SC(N)=NC2=O)ccc1OC(C)C | inactive
Cc1cc(N2CCN(C)CC2)nc2ccc(NC(=S)N3CCCCC3)cc12 | inactive
O=C1CSc2ccc(C(=O)Nc3cccc(S(=O)(=O)Nc4ccc(Br)cc4)c3)cc2N1 | inactive
CCN1CCN(c2cc(C)c3cc(NC(=S)N4CCN(c5ccccc5)CC4)ccc3n2)CC1 | inactive
Cc1ccc(CC(=O)OCCNC(=O)c2cccnc2)cc1 | inactive
COC(=O)c1c(NC(=O)COc2ncnc3ccccc23)sc(C)c1C | inactive
CC1C=CCC2C(=O)N(c3ccc(OC(=O)c4cccs4)cc3)C(=O)C12 (configuration not stated) | inactive
Cc1cc(N2CCN(C)CC2)nc2ccc(NC(=S)N3CCN(c4cccc(Cl)c4)CC3)cc12 | inactive
CCN=c1scc(C)n1/N=C/c1ccc(O)c(O)c1O | inactive
COc1ccc(-c2csc(NC(=O)/C(N=Nc3ccccc3)=C(\C)O)n2)cc1 | inactive
COc1cc(/C=C2\S/C(=N/S(=O)(=O)c3ccc(C)cc3)NC2=O)c([N+](=O)[O-])cc1OC | inactive
O=C(Nc1nccs1)c1ccc(COc2ccc(F)cc2)o1 | inactive
COc1ccc(Cl)cc1-n1c(C)cc(C=O)c1C | inactive
COc1ccc(CC(=O)Nc2ccc(C(=O)Nc3nccs3)cc2)cc1OC | inactive
O=[N+]([O-])c1c(NCCO)cc(Sc2nc3ccccc3s2)c2nonc12 | inactive
CCN1CCN(c2ccc(NC(=O)c3cccc4ncccc34)cc2)CC1 | inactive
Cc1ccc(S(=O)(=O)N2CCCCC2)cc1NC(=O)COC(=O)c1ccccc1F | inactive

SMILES | percent span
CC(C)c1ccc(C2CC(c3ccc(Br)cc3)=NN2C(N)=S)cc1 (configuration not stated) | inactive
O=C(Nc1ccc(Cl)cn1)Nc1ccccc1F | inactive
Nc1cccc(-c2cn3cccnc3n2)c1 | inactive
O=C(Nc1cccc(Cl)c1)Nc1ccc(Cl)cn1 | inactive
O=C(c1cnccn1)N(Cc1cccs1)C1(C(=O)NC2CCCCC2)CCCCC1 | inactive
Cc1occc1C(=O)NNC(=S)NCc1ccccc1 | inactive
COc1cc(/C=N/NC(=O)c2ccc([N+](=O)[O-])cc2Cl)cc(Br)c1O | inactive
Cc1cc(C)c2nc3nc(C)c(C)cc3c(N)c2c1 | inactive
OC(COc1ccc2ccccc2c1)CN1CCCC1 (configuration not stated) | inactive
Cc1cccc(C(=O)N=c2c(C#N)cc3c(=O)n4cccc(C)c4nc3n2Cc2ccco2)c1 | inactive
Cc1c(NC2=C(Cl)C(=O)N(c3ccccc3)C2=O)c(=O)n(-c2ccccc2)n1C | inactive
Cc1ccc(SCCC(=O)Nc2ccc(Br)c(C)c2)cc1 | inactive
Cc1ccc(CNc2ccc3c(c2)OCO3)c(C)c1 | inactive
O=C(CCl)Nc1cccc2ncccc12 | inactive
COc1cc(NC(=S)NCCCO)c(OC)cc1Cl | inactive
c1ccc(-c2nc(N3CCCCCC3)c3ccccc3n2)nc1 | inactive
Cc1ccc(NC2=C(NC(=O)c3ccccc3)C(=O)c3ccccc3C2=O)cc1Cl | inactive
OC(CNC1CCCCC1)COCCOc1ccc(Br)cc1 (configuration not stated) | inactive
CC1Cc2ccccc2N1C(=O)CSc1nnnn1-c1ccc2c(c1)OCCO2 (configuration not stated) | inactive
Cc1cc(C)cc(-n2c(C)nc3cc(C(=O)O)ccc32)c1 | inactive
O=C(COc1ccccc1)N1CCN(c2ncnc3c2cnn3-c2ccccc2)CC1 | inactive
N#Cc1ccc(N=c2ssnc2Cl)cc1 | inactive
Nc1ccc(N2CCN(CCCCN3C(=O)C4CCCN4C3=O)CC2)cc1 (configuration not stated) | inactive
CN1/C(=C\C(=O)Nc2ccc(Cl)cc2)C(C)(C)c2ccccc21 | inactive
